Data published in ChEMBL document CHEMBL4184140, “Expanding the tetrahydroquinoline pharmacophore” (Bioorg Med Chem Lett, 2017).
pIC50: −log10 of the molar value. Activity calls are given as the source filed them. The calls are words filed in the database; no cut-off is given here.

system: A549; experiment: Antiproliferative activity against human A549 cells; format: functional, cell-based; details: not given

Structure (SMILES) | Activity
Clc1ccc([C@H]2Nc3ccccc3[C@H]3C=CC[C@H]32)cc1 | inactive
C=CCO[C@@H]1[C@@H]2c3ccccc3N(C(C)=O)[C@H](c3cccc(Br)c3)[C@@H]2C[C@H]1N=[N+]=[N-] | inactive
O=[N+]([O-])c1ccc2c(c1)N[C@H](c1ccccc1)[C@@H]1C[C@H](O)[C@H](O)[C@H]21 | inactive
CC(=O)N1c2ccccc2[C@H]2C=CC[C@H]2[C@H]1c1cccc(Br)c1 | inactive
CC(=O)N1c2ccccc2[C@H]2[C@@H](O)[C@H](N=[N+]=[N-])C[C@H]2[C@H]1c1ccc(Cl)cc1 | inactive
CC(=O)N1c2ccccc2[C@@H]2[C@@H](C[C@@H]3O[C@H]23)[C@H]1c1cccc(Br)c1 | inactive
O[C@@H]1[C@@H]2c3ccc(F)cc3N[C@H](c3ccccc3)[C@@H]2C[C@@H]1O | inactive
CC(=O)N1c2ccccc2[C@H]2C=CC[C@H]2[C@H]1c1ccccc1C | inactive
CC(=O)N1c2ccccc2[C@H]2[C@@H](O)[C@H](N=[N+]=[N-])C[C@H]2[C@H]1c1cccc(Br)c1 | inactive
Cc1ccccc1[C@H]1Nc2ccccc2[C@H]2C=CC[C@H]21 | inactive
CC(=O)N1c2cc([N+](=O)[O-])ccc2[C@H]2[C@@H](O)[C@H](N=[N+]=[N-])C[C@H]2[C@H]1c1ccccc1 | inactive
O=[N+]([O-])c1ccc2c(c1)N[C@H](c1ccccc1)[C@@H]1CC=C[C@H]21 | inactive
Fc1ccc2c(c1)N[C@H](c1ccccc1)[C@@H]1CC=C[C@H]21 | inactive
CC(=O)N1c2ccccc2[C@H]2C=CC[C@H]2[C@H]1c1ccc(Cl)cc1 | inactive
Cc1ccccc1[C@H]1Nc2ccccc2[C@H]2[C@@H](O)[C@@H](O)C[C@H]21 | inactive

system: IMR-32; experiment: Neurotrophic activity in human IMR32 cells assessed as appearance of neurites at 1 to 10 uM after 96 hrs by bright field microscopic analysis; format: functional, cell-based; details: not given

Structure (SMILES) | Activity
Clc1ccc([C@H]2Nc3ccccc3[C@H]3C=CC[C@H]32)cc1 | inactive
C=CCO[C@@H]1[C@@H]2c3ccccc3N(C(C)=O)[C@H](c3cccc(Br)c3)[C@@H]2C[C@H]1N=[N+]=[N-] | inactive
O=[N+]([O-])c1ccc2c(c1)N[C@H](c1ccccc1)[C@@H]1C[C@H](O)[C@H](O)[C@H]21 | inactive
CC(=O)N1c2ccccc2[C@H]2C=CC[C@H]2[C@H]1c1cccc(Br)c1 | inactive
CC(=O)N1c2ccccc2[C@H]2[C@@H](O)[C@H](N=[N+]=[N-])C[C@H]2[C@H]1c1ccc(Cl)cc1 | inactive
CC(=O)N1c2ccccc2[C@@H]2[C@@H](C[C@@H]3O[C@H]23)[C@H]1c1cccc(Br)c1 | inactive
O[C@@H]1[C@@H]2c3ccc(F)cc3N[C@H](c3ccccc3)[C@@H]2C[C@@H]1O | inactive
CC(=O)N1c2ccccc2[C@H]2C=CC[C@H]2[C@H]1c1ccccc1C | inactive
CC(=O)N1c2ccccc2[C@H]2[C@@H](O)[C@H](N=[N+]=[N-])C[C@H]2[C@H]1c1cccc(Br)c1 | inactive
Cc1ccccc1[C@H]1Nc2ccccc2[C@H]2C=CC[C@H]21 | inactive
CC(=O)N1c2cc([N+](=O)[O-])ccc2[C@H]2[C@@H](O)[C@H](N=[N+]=[N-])C[C@H]2[C@H]1c1ccccc1 | inactive
O=[N+]([O-])c1ccc2c(c1)N[C@H](c1ccccc1)[C@@H]1CC=C[C@H]21 | inactive
Fc1ccc2c(c1)N[C@H](c1ccccc1)[C@@H]1CC=C[C@H]21 | inactive
CC(=O)N1c2ccccc2[C@H]2C=CC[C@H]2[C@H]1c1ccc(Cl)cc1 | inactive
Cc1ccccc1[C@H]1Nc2ccccc2[C@H]2[C@@H](O)[C@@H](O)C[C@H]21 | inactive

system: DU-145; experiment: Antiproliferative activity against human DU145 cells; format: functional, cell-based; details: not given

Structure (SMILES) | Activity
Clc1ccc([C@H]2Nc3ccccc3[C@H]3C=CC[C@H]32)cc1 | inactive
C=CCO[C@@H]1[C@@H]2c3ccccc3N(C(C)=O)[C@H](c3cccc(Br)c3)[C@@H]2C[C@H]1N=[N+]=[N-] | inactive
O=[N+]([O-])c1ccc2c(c1)N[C@H](c1ccccc1)[C@@H]1C[C@H](O)[C@H](O)[C@H]21 | inactive
CC(=O)N1c2ccccc2[C@H]2C=CC[C@H]2[C@H]1c1cccc(Br)c1 | inactive
CC(=O)N1c2ccccc2[C@H]2[C@@H](O)[C@H](N=[N+]=[N-])C[C@H]2[C@H]1c1ccc(Cl)cc1 | inactive
CC(=O)N1c2ccccc2[C@@H]2[C@@H](C[C@@H]3O[C@H]23)[C@H]1c1cccc(Br)c1 | inactive
O[C@@H]1[C@@H]2c3ccc(F)cc3N[C@H](c3ccccc3)[C@@H]2C[C@@H]1O | inactive
CC(=O)N1c2ccccc2[C@H]2C=CC[C@H]2[C@H]1c1ccccc1C | inactive
CC(=O)N1c2ccccc2[C@H]2[C@@H](O)[C@H](N=[N+]=[N-])C[C@H]2[C@H]1c1cccc(Br)c1 | inactive
Cc1ccccc1[C@H]1Nc2ccccc2[C@H]2C=CC[C@H]21 | inactive
CC(=O)N1c2cc([N+](=O)[O-])ccc2[C@H]2[C@@H](O)[C@H](N=[N+]=[N-])C[C@H]2[C@H]1c1ccccc1 | inactive
O=[N+]([O-])c1ccc2c(c1)N[C@H](c1ccccc1)[C@@H]1CC=C[C@H]21 | inactive
Fc1ccc2c(c1)N[C@H](c1ccccc1)[C@@H]1CC=C[C@H]21 | inactive
CC(=O)N1c2ccccc2[C@H]2C=CC[C@H]2[C@H]1c1ccc(Cl)cc1 | inactive
Cc1ccccc1[C@H]1Nc2ccccc2[C@H]2[C@@H](O)[C@@H](O)C[C@H]21 | inactive

system: IMR-32; experiment: Cytotoxicity against human IMR32 cells after 48 hrs by SRB assay; format: cell-based; details: IMR-32, 48 h

Structure (SMILES) | pIC50
Clc1ccc([C@H]2Nc3ccccc3[C@H]3C=CC[C@H]32)cc1 | < 4.00
C=CCO[C@@H]1[C@@H]2c3ccccc3N(C(C)=O)[C@H](c3cccc(Br)c3)[C@@H]2C[C@H]1N=[N+]=[N-] | < 4.00
O=[N+]([O-])c1ccc2c(c1)N[C@H](c1ccccc1)[C@@H]1C[C@H](O)[C@H](O)[C@H]21 | 4.24
CC(=O)N1c2ccccc2[C@H]2C=CC[C@H]2[C@H]1c1cccc(Br)c1 | < 4.00
CC(=O)N1c2ccccc2[C@H]2[C@@H](O)[C@H](N=[N+]=[N-])C[C@H]2[C@H]1c1ccc(Cl)cc1 | < 4.00
CC(=O)N1c2ccccc2[C@@H]2[C@@H](C[C@@H]3O[C@H]23)[C@H]1c1cccc(Br)c1 | < 4.00
O[C@@H]1[C@@H]2c3ccc(F)cc3N[C@H](c3ccccc3)[C@@H]2C[C@@H]1O | < 4.00
CC(=O)N1c2ccccc2[C@H]2C=CC[C@H]2[C@H]1c1ccccc1C | < 4.00
CC(=O)N1c2ccccc2[C@H]2[C@@H](O)[C@H](N=[N+]=[N-])C[C@H]2[C@H]1c1cccc(Br)c1 | < 4.00
Cc1ccccc1[C@H]1Nc2ccccc2[C@H]2C=CC[C@H]21 | 4.06
CC(=O)N1c2cc([N+](=O)[O-])ccc2[C@H]2[C@@H](O)[C@H](N=[N+]=[N-])C[C@H]2[C@H]1c1ccccc1 | < 4.00
O=[N+]([O-])c1ccc2c(c1)N[C@H](c1ccccc1)[C@@H]1CC=C[C@H]21 | < 4.00
COc1cccc2c1C(=O)c1c(O)c3c(c(O)c1C2=O)C[C@@](O)(C(=O)CO)C[C@@H]3O[C@H]1C[C@H](N)[C@H](O)[C@H](C)O1 [DOXORUBICIN] | 5.07
Fc1ccc2c(c1)N[C@H](c1ccccc1)[C@@H]1CC=C[C@H]21 | < 4.00
CC(=O)N1c2ccccc2[C@H]2C=CC[C@H]2[C@H]1c1ccc(Cl)cc1 | 4.02
Cc1ccccc1[C@H]1Nc2ccccc2[C@H]2[C@@H](O)[C@@H](O)C[C@H]21 | < 4.00

system: HepG2; experiment: Antiproliferative activity against human HepG2 cells; format: functional, cell-based; details: not given

Structure (SMILES) | Activity
Clc1ccc([C@H]2Nc3ccccc3[C@H]3C=CC[C@H]32)cc1 | inactive
C=CCO[C@@H]1[C@@H]2c3ccccc3N(C(C)=O)[C@H](c3cccc(Br)c3)[C@@H]2C[C@H]1N=[N+]=[N-] | inactive
O=[N+]([O-])c1ccc2c(c1)N[C@H](c1ccccc1)[C@@H]1C[C@H](O)[C@H](O)[C@H]21 | inactive
CC(=O)N1c2ccccc2[C@H]2C=CC[C@H]2[C@H]1c1cccc(Br)c1 | inactive
CC(=O)N1c2ccccc2[C@H]2[C@@H](O)[C@H](N=[N+]=[N-])C[C@H]2[C@H]1c1ccc(Cl)cc1 | inactive
CC(=O)N1c2ccccc2[C@@H]2[C@@H](C[C@@H]3O[C@H]23)[C@H]1c1cccc(Br)c1 | inactive
O[C@@H]1[C@@H]2c3ccc(F)cc3N[C@H](c3ccccc3)[C@@H]2C[C@@H]1O | inactive
CC(=O)N1c2ccccc2[C@H]2C=CC[C@H]2[C@H]1c1ccccc1C | inactive
CC(=O)N1c2ccccc2[C@H]2[C@@H](O)[C@H](N=[N+]=[N-])C[C@H]2[C@H]1c1cccc(Br)c1 | inactive
Cc1ccccc1[C@H]1Nc2ccccc2[C@H]2C=CC[C@H]21 | inactive
CC(=O)N1c2cc([N+](=O)[O-])ccc2[C@H]2[C@@H](O)[C@H](N=[N+]=[N-])C[C@H]2[C@H]1c1ccccc1 | inactive
O=[N+]([O-])c1ccc2c(c1)N[C@H](c1ccccc1)[C@@H]1CC=C[C@H]21 | inactive
Fc1ccc2c(c1)N[C@H](c1ccccc1)[C@@H]1CC=C[C@H]21 | inactive
CC(=O)N1c2ccccc2[C@H]2C=CC[C@H]2[C@H]1c1ccc(Cl)cc1 | inactive
Cc1ccccc1[C@H]1Nc2ccccc2[C@H]2[C@@H](O)[C@@H](O)C[C@H]21 | inactive

system: MCF7; experiment: Antiproliferative activity against human MCF7 cells; format: functional, cell-based; details: not given

Structure (SMILES) | Activity
Clc1ccc([C@H]2Nc3ccccc3[C@H]3C=CC[C@H]32)cc1 | inactive
C=CCO[C@@H]1[C@@H]2c3ccccc3N(C(C)=O)[C@H](c3cccc(Br)c3)[C@@H]2C[C@H]1N=[N+]=[N-] | inactive
O=[N+]([O-])c1ccc2c(c1)N[C@H](c1ccccc1)[C@@H]1C[C@H](O)[C@H](O)[C@H]21 | inactive
CC(=O)N1c2ccccc2[C@H]2C=CC[C@H]2[C@H]1c1cccc(Br)c1 | inactive
CC(=O)N1c2ccccc2[C@H]2[C@@H](O)[C@H](N=[N+]=[N-])C[C@H]2[C@H]1c1ccc(Cl)cc1 | inactive
CC(=O)N1c2ccccc2[C@@H]2[C@@H](C[C@@H]3O[C@H]23)[C@H]1c1cccc(Br)c1 | inactive
O[C@@H]1[C@@H]2c3ccc(F)cc3N[C@H](c3ccccc3)[C@@H]2C[C@@H]1O | inactive
CC(=O)N1c2ccccc2[C@H]2C=CC[C@H]2[C@H]1c1ccccc1C | inactive
CC(=O)N1c2ccccc2[C@H]2[C@@H](O)[C@H](N=[N+]=[N-])C[C@H]2[C@H]1c1cccc(Br)c1 | inactive
Cc1ccccc1[C@H]1Nc2ccccc2[C@H]2C=CC[C@H]21 | inactive
CC(=O)N1c2cc([N+](=O)[O-])ccc2[C@H]2[C@@H](O)[C@H](N=[N+]=[N-])C[C@H]2[C@H]1c1ccccc1 | inactive
O=[N+]([O-])c1ccc2c(c1)N[C@H](c1ccccc1)[C@@H]1CC=C[C@H]21 | inactive
Fc1ccc2c(c1)N[C@H](c1ccccc1)[C@@H]1CC=C[C@H]21 | inactive
CC(=O)N1c2ccccc2[C@H]2C=CC[C@H]2[C@H]1c1ccc(Cl)cc1 | inactive
Cc1ccccc1[C@H]1Nc2ccccc2[C@H]2[C@@H](O)[C@@H](O)C[C@H]21 | inactive
